Assay results as given in ChEMBL document CHEMBL1145498, “A systematic interaction map of validated kinase inhibitors with Ser/Thr kinases” (Proc Natl Acad Sci U S A, 2007).

Target: cAMP-dependent protein kinase catalytic subunit alpha (Homo sapiens) (UniProt P17612)

| ΔTm [°C] | SMILES |
| --- | --- |
| -0.2 | COc1ccc(COc2ccc(Cc3cnc(N)nc3N)cc2OC)cc1 |
| 9.2 | CCN(CC)CCNC(=O)c1c(C)[nH]c(/C=C2\C(=O)Nc3ccc(F)cc32)c1C |

| SMILES | ΔTm [°C] |
| --- | --- |
| CN1CCC(Nc2ncc3ncnc(Nc4ccc(F)c(Cl)c4)c3n2)CC1 [FALNIDAMOL] | 0.4 |

Target: Casein kinase I isoform gamma-2 (Homo sapiens) (UniProt P78368)

| SMILES | ΔTm [°C] |
| --- | --- |
| CN1CCC(Nc2ncc3ncnc(Nc4ccc(F)c(Cl)c4)c3n2)CC1 [FALNIDAMOL] | -0.2 |
| COc1ccc(COc2ccc(Cc3cnc(N)nc3N)cc2OC)cc1 | -0.2 |

Target: Dual specificity protein kinase CLK1 (Homo sapiens) (UniProt P49759)
Sequence (P49759 whole entry, looked up): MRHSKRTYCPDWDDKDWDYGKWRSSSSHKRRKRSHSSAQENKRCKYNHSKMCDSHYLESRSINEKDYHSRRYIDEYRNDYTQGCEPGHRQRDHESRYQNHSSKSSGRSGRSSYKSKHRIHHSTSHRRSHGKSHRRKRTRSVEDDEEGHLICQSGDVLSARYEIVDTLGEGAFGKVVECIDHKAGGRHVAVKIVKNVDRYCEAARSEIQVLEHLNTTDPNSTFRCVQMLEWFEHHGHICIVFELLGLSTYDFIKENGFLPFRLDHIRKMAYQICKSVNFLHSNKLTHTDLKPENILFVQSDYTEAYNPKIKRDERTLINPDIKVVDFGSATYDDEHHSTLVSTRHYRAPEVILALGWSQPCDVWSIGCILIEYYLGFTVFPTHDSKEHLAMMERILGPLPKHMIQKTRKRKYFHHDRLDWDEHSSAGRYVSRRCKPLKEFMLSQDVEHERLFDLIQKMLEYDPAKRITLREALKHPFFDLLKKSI

| ΔTm [°C] | SMILES |
| --- | --- |
| -1.5 | COc1ccc(COc2ccc(Cc3cnc(N)nc3N)cc2OC)cc1 |
| 5.1 | CCN(CC)CCNC(=O)c1c(C)[nH]c(/C=C2\C(=O)Nc3ccc(F)cc32)c1C |

| SMILES | ΔTm [°C] |
| --- | --- |
| CN1CCC(Nc2ncc3ncnc(Nc4ccc(F)c(Cl)c4)c3n2)CC1 [FALNIDAMOL] | 0.5 |

Target: T1, Dual specificity mitogen-activated protein kinase kinase 6 (Homo sapiens) (UniProt P52564)
T1 sequence (whole entry): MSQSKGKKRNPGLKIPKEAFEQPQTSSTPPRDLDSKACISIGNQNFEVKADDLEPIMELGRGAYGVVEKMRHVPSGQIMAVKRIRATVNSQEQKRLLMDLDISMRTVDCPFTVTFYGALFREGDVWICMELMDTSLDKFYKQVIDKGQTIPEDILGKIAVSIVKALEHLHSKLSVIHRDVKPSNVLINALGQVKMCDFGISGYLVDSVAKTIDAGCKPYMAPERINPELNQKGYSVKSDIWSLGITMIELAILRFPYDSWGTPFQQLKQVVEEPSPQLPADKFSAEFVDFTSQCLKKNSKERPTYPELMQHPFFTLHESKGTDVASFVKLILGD

| ΔTm [°C] | SMILES |
| --- | --- |
| 0.1 | COc1ccc(COc2ccc(Cc3cnc(N)nc3N)cc2OC)cc1 |
| 3.9 | CCN(CC)CCNC(=O)c1c(C)[nH]c(/C=C2\C(=O)Nc3ccc(F)cc32)c1C |

| SMILES | ΔTm [°C] |
| --- | --- |
| CN1CCC(Nc2ncc3ncnc(Nc4ccc(F)c(Cl)c4)c3n2)CC1 [FALNIDAMOL] | 0.3 |

Target: T2, Calcium/calmodulin-dependent protein kinase type IV (Homo sapiens) (UniProt Q16566)
T2 sequence (whole entry): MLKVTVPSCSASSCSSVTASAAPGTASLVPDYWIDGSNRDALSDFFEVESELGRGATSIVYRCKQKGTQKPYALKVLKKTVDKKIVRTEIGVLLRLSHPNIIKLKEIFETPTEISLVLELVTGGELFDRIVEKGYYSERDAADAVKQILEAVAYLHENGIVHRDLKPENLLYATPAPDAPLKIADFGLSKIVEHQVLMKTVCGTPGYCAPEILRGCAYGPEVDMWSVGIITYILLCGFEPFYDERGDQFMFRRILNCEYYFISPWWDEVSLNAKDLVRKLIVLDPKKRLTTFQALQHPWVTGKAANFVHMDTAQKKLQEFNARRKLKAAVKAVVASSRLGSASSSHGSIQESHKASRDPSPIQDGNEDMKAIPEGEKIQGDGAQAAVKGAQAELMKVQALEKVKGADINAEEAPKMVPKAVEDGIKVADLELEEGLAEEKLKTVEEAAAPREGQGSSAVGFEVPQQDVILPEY

| ΔTm [°C] | SMILES |
| --- | --- |
| 0 | COc1ccc(COc2ccc(Cc3cnc(N)nc3N)cc2OC)cc1 |
| 6 | CCN(CC)CCNC(=O)c1c(C)[nH]c(/C=C2\C(=O)Nc3ccc(F)cc32)c1C |

| SMILES | ΔTm [°C] |
| --- | --- |
| CN1CCC(Nc2ncc3ncnc(Nc4ccc(F)c(Cl)c4)c3n2)CC1 [FALNIDAMOL] | 0.1 |

Target: Serine/threonine-protein kinase RIO2 (Homo sapiens) (UniProt Q9BVS4)
Sequence (Q9BVS4 whole entry, looked up): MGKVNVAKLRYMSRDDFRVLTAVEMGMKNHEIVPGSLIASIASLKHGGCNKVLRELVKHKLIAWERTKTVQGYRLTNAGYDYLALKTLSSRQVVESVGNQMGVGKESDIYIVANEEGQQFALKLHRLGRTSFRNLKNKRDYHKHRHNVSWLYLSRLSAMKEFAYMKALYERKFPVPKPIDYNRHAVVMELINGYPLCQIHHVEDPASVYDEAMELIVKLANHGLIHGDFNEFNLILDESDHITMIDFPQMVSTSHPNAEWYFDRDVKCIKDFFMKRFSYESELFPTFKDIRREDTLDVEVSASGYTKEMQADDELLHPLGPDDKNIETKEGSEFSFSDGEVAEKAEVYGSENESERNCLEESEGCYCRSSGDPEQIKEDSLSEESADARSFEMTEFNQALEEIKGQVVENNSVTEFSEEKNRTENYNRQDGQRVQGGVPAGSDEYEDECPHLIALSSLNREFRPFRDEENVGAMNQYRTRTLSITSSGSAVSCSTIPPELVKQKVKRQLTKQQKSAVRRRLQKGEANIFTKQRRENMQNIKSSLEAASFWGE

| ΔTm [°C] | SMILES |
| --- | --- |
| 0.2 | COc1ccc(COc2ccc(Cc3cnc(N)nc3N)cc2OC)cc1 |
| 6 | CCN(CC)CCNC(=O)c1c(C)[nH]c(/C=C2\C(=O)Nc3ccc(F)cc32)c1C |

| SMILES | ΔTm [°C] |
| --- | --- |
| CN1CCC(Nc2ncc3ncnc(Nc4ccc(F)c(Cl)c4)c3n2)CC1 [FALNIDAMOL] | -0.4 |

Target: TRAF2 and NCK-interacting protein kinase (Homo sapiens) (UniProt Q9UKE5)

| ΔTm [°C] | SMILES |
| --- | --- |
| 0.1 | COc1ccc(COc2ccc(Cc3cnc(N)nc3N)cc2OC)cc1 |
| 0.7 | CCN(CC)CCNC(=O)c1c(C)[nH]c(/C=C2\C(=O)Nc3ccc(F)cc32)c1C |

Target: Mitogen-activated protein kinase 3 (Homo sapiens, UniProt P27361)
Sequence (P27361 whole entry): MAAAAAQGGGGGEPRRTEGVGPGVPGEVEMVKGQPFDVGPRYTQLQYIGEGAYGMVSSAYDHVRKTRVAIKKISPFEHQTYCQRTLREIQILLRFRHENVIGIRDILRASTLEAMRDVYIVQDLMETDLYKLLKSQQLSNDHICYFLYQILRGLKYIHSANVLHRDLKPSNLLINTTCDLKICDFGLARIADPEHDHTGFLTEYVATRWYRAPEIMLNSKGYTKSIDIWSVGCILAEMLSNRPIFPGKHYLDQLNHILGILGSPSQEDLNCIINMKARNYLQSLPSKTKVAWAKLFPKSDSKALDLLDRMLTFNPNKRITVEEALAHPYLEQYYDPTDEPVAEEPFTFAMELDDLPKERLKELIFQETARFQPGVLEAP

| ΔTm [°C] | SMILES |
| --- | --- |
| 0.3 | COc1ccc(COc2ccc(Cc3cnc(N)nc3N)cc2OC)cc1 |
| 0.9 | CCN(CC)CCNC(=O)c1c(C)[nH]c(/C=C2\C(=O)Nc3ccc(F)cc32)c1C |

| SMILES | ΔTm [°C] |
| --- | --- |
| CN1CCC(Nc2ncc3ncnc(Nc4ccc(F)c(Cl)c4)c3n2)CC1 [FALNIDAMOL] | 1.7 |

Target: Tyrosine-protein kinase JAK1 (Homo sapiens) (UniProt P23458)
Sequence (P23458 whole entry): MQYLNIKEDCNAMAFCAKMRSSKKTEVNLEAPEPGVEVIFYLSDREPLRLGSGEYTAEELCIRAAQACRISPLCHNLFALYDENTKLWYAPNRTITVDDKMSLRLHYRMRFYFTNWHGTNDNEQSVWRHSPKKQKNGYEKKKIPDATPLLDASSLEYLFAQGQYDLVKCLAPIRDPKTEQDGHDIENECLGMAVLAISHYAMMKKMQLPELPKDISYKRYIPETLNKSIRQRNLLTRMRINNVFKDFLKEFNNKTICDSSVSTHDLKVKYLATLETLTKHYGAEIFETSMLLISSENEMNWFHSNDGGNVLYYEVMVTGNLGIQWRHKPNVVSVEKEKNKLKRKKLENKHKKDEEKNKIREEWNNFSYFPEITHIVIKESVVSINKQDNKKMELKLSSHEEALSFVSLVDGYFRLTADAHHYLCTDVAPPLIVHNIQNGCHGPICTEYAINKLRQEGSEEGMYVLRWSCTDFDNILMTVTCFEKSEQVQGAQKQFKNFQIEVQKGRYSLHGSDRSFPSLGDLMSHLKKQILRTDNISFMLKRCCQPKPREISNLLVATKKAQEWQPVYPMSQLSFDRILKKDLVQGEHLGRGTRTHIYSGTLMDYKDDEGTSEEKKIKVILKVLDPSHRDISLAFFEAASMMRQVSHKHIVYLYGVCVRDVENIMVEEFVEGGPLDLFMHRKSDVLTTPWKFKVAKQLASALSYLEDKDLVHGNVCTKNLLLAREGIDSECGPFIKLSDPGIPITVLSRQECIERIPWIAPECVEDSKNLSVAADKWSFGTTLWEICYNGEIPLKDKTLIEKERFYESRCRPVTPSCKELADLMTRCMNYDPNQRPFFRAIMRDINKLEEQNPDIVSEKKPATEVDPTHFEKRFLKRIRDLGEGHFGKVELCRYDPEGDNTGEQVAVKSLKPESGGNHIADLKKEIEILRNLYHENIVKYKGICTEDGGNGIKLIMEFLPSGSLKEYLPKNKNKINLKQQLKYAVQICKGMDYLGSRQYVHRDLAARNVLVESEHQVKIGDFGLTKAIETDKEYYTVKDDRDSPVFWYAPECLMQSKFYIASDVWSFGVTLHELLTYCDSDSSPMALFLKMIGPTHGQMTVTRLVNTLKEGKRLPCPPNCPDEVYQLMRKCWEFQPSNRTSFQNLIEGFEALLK

| ΔTm [°C] | SMILES |
| --- | --- |
| 0.3 | COc1ccc(COc2ccc(Cc3cnc(N)nc3N)cc2OC)cc1 |
| 5.5 | CCN(CC)CCNC(=O)c1c(C)[nH]c(/C=C2\C(=O)Nc3ccc(F)cc32)c1C |

| SMILES | ΔTm [°C] |
| --- | --- |
| CN1CCC(Nc2ncc3ncnc(Nc4ccc(F)c(Cl)c4)c3n2)CC1 [FALNIDAMOL] | 0.5 |

Target: STE20-like serine/threonine-protein kinase (Homo sapiens) (UniProt Q9H2G2)

| ΔTm [°C] | SMILES |
| --- | --- |
| 0.1 | COc1ccc(COc2ccc(Cc3cnc(N)nc3N)cc2OC)cc1 |
| 6.5 | CCN(CC)CCNC(=O)c1c(C)[nH]c(/C=C2\C(=O)Nc3ccc(F)cc32)c1C |

Target: Serine/threonine-protein kinase Chk2 (Homo sapiens, UniProt O96017)
Sequence (O96017 whole entry): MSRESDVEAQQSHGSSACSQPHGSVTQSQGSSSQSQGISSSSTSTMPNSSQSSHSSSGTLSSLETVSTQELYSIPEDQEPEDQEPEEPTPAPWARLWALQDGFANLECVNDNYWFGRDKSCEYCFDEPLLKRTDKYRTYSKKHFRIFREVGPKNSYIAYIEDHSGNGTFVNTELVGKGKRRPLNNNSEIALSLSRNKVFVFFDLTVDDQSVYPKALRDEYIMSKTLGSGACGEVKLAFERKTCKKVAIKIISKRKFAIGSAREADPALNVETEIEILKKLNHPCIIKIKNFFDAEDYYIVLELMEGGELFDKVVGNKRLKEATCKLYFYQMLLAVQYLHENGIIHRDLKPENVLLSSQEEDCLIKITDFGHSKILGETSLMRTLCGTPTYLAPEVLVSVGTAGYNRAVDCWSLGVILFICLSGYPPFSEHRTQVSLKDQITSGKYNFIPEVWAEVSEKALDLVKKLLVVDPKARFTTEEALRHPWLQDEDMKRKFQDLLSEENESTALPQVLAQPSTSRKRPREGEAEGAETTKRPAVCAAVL

| ΔTm [°C] | SMILES |
| --- | --- |
| 0.1 | COc1ccc(COc2ccc(Cc3cnc(N)nc3N)cc2OC)cc1 |
| 12.9 | CCN(CC)CCNC(=O)c1c(C)[nH]c(/C=C2\C(=O)Nc3ccc(F)cc32)c1C |

| SMILES | ΔTm [°C] |
| --- | --- |
| CN1CCC(Nc2ncc3ncnc(Nc4ccc(F)c(Cl)c4)c3n2)CC1 [FALNIDAMOL] | 0.2 |

Target: Calcium/calmodulin-dependent protein kinase kinase 2 (Homo sapiens, UniProt Q96RR4)

| ΔTm [°C] | SMILES |
| --- | --- |
| -0.1 | COc1ccc(COc2ccc(Cc3cnc(N)nc3N)cc2OC)cc1 |
| 6.8 | CCN(CC)CCNC(=O)c1c(C)[nH]c(/C=C2\C(=O)Nc3ccc(F)cc32)c1C |

| SMILES | ΔTm [°C] |
| --- | --- |
| CN1CCC(Nc2ncc3ncnc(Nc4ccc(F)c(Cl)c4)c3n2)CC1 [FALNIDAMOL] | -0.1 |

Target: Ribosomal protein S6 kinase alpha-3 (Homo sapiens) (UniProt P51812)

| ΔTm [°C] | SMILES |
| --- | --- |
| -0.3 | COc1ccc(COc2ccc(Cc3cnc(N)nc3N)cc2OC)cc1 |

Target: 5'-AMP-activated protein kinase catalytic subunit alpha-2 (Homo sapiens) (UniProt P54646)
Sequence (P54646 whole entry, looked up): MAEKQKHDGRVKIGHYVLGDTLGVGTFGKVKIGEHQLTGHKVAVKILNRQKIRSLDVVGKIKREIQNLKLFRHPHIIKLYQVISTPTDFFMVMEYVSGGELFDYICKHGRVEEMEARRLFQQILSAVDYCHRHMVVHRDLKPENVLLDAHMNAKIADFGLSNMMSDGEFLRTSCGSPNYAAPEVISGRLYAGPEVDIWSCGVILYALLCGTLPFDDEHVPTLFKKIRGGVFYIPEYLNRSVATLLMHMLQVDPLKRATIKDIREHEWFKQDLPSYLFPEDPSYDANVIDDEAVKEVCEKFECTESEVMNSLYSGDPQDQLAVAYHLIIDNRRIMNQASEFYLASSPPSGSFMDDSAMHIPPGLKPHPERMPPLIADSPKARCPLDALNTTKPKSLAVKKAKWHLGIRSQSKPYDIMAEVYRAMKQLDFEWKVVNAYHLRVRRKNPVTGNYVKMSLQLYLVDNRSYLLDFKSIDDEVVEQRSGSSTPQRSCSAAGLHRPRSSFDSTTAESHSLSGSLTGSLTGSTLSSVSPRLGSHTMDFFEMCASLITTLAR

| ΔTm [°C] | SMILES |
| --- | --- |
| 0.1 | COc1ccc(COc2ccc(Cc3cnc(N)nc3N)cc2OC)cc1 |
| 7.4 | CCN(CC)CCNC(=O)c1c(C)[nH]c(/C=C2\C(=O)Nc3ccc(F)cc32)c1C |

| SMILES | ΔTm [°C] |
| --- | --- |
| CN1CCC(Nc2ncc3ncnc(Nc4ccc(F)c(Cl)c4)c3n2)CC1 [FALNIDAMOL] | 0.1 |

Target: Casein kinase I isoform gamma-3 (Homo sapiens) (UniProt Q9Y6M4)
Sequence (Q9Y6M4 whole entry, looked up, canonical isoform): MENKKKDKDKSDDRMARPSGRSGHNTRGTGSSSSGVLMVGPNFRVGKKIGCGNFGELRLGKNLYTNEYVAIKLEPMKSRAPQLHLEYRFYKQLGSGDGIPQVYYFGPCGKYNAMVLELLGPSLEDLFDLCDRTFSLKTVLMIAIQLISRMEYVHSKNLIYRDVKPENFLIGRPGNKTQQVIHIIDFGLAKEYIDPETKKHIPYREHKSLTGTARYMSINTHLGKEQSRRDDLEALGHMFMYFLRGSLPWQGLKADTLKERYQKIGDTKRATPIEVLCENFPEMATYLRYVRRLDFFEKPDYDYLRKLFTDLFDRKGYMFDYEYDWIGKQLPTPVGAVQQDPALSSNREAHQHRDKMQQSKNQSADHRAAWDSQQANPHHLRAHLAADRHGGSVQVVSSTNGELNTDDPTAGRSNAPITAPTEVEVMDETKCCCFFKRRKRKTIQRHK

| SMILES | ΔTm [°C] |
| --- | --- |
| CN1CCC(Nc2ncc3ncnc(Nc4ccc(F)c(Cl)c4)c3n2)CC1 [FALNIDAMOL] | 0 |
| COc1ccc(COc2ccc(Cc3cnc(N)nc3N)cc2OC)cc1 | 0.5 |

Target: Calcium/calmodulin-dependent protein kinase type II subunit alpha (Homo sapiens) (UniProt Q9UQM7)
Sequence (Q9UQM7 whole entry): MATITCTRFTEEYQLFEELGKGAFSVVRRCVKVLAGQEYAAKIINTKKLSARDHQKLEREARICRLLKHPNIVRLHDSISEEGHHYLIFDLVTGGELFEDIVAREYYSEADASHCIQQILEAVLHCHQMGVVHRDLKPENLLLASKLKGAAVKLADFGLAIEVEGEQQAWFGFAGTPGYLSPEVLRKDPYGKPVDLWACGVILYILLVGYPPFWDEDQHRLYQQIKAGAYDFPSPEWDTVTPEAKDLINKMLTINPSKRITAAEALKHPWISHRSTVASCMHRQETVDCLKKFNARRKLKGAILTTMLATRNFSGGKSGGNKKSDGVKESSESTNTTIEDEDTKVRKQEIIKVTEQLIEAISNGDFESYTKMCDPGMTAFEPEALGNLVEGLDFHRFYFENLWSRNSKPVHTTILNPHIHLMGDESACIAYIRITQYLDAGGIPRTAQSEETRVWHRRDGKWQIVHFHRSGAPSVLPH

| ΔTm [°C] | SMILES |
| --- | --- |
| -0.1 | COc1ccc(COc2ccc(Cc3cnc(N)nc3N)cc2OC)cc1 |
| 5 | CCN(CC)CCNC(=O)c1c(C)[nH]c(/C=C2\C(=O)Nc3ccc(F)cc32)c1C |

| SMILES | ΔTm [°C] |
| --- | --- |
| CN1CCC(Nc2ncc3ncnc(Nc4ccc(F)c(Cl)c4)c3n2)CC1 [FALNIDAMOL] | -0.2 |

Target: T3, 3-phosphoinositide-dependent protein kinase 1 (Homo sapiens) (UniProt O15530)
T3 sequence (whole entry): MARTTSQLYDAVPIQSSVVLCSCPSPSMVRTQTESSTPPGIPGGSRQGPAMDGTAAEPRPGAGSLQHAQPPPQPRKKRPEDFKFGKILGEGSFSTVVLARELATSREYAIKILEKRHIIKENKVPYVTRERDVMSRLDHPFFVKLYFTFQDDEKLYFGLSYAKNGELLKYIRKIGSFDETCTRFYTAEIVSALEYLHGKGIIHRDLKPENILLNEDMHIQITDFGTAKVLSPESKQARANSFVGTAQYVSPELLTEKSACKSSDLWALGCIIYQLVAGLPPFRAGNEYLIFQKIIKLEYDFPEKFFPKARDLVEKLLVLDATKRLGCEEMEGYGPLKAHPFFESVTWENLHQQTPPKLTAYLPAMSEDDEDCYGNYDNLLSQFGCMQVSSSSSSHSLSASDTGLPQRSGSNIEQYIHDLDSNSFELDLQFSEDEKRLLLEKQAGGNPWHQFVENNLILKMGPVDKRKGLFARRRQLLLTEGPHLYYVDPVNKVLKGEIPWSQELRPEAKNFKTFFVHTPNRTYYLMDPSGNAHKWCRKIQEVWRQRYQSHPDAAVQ

| ΔTm [°C] | SMILES |
| --- | --- |
| -0.9 | COc1ccc(COc2ccc(Cc3cnc(N)nc3N)cc2OC)cc1 |
| 2.9 | CCN(CC)CCNC(=O)c1c(C)[nH]c(/C=C2\C(=O)Nc3ccc(F)cc32)c1C |

| SMILES | ΔTm [°C] |
| --- | --- |
| CN1CCC(Nc2ncc3ncnc(Nc4ccc(F)c(Cl)c4)c3n2)CC1 [FALNIDAMOL] | 0.1 |

Target: Serine/threonine-protein kinase Nek6 (Homo sapiens) (UniProt Q9HC98)
Sequence (Q9HC98 whole entry): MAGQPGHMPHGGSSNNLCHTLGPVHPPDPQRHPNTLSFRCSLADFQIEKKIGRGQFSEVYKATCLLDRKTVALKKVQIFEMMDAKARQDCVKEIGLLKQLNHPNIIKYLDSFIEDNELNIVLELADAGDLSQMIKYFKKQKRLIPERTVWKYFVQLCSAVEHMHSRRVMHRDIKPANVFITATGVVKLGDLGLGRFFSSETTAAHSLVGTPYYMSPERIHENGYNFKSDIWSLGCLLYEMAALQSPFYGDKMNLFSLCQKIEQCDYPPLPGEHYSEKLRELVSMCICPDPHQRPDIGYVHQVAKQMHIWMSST

| ΔTm [°C] | SMILES |
| --- | --- |
| -0.2 | COc1ccc(COc2ccc(Cc3cnc(N)nc3N)cc2OC)cc1 |
| 3.4 | CCN(CC)CCNC(=O)c1c(C)[nH]c(/C=C2\C(=O)Nc3ccc(F)cc32)c1C |

| SMILES | ΔTm [°C] |
| --- | --- |
| CN1CCC(Nc2ncc3ncnc(Nc4ccc(F)c(Cl)c4)c3n2)CC1 [FALNIDAMOL] | 1.5 |
